This is an account of results in patent JP2016013988A, “エステル化合物” (Mitsubishi Gas Chemical Co Inc, priority 2014, dated 2016).

The nature of this data set: APHA (colour number) of the purified diester. The format is physicochemical. The settings on record: after KOH/water washing, removal of acid under reduced pressure and activated carbon treatment.
`CCCCC(CC)(COCC(C)(C)COC(=O)C(C)(C)C)COC(=O)C(C)(C)C` (stereo not drawn) [実施例1, ジピバリン酸 4−オキサ−2−ブチル−2−エチル−6,6−ジメチルヘプタン−1,7−ジイル]: the APHA came to 28. The value for `CCCC(C)(COCC(C)(C)COC(=O)C(C)(C)C)COC(=O)C(C)(C)C` (stereo not drawn) [実施例2, ジピバリン酸 4−オキサ−2−プロピル−2,6,6−トリメチルヘプタン−1,7−ジイル] was 27; that for `CCCCC(CC)C(=O)OCC(C)(C)COCC(C)(CCC)COC(=O)C(CC)CCCC` (stereo not drawn) [実施例4, ビス(2−エチルへキサン酸) 4−オキサ−2−プロピル−2,6,6−トリメチルヘプタン−1,7−ジイル] was 22.
